# Measurements as given in patent US20100081632A1, “High-content and high throughput assays for identification of lipid-regulating pathways, and novel therapeutic agents for lipid disorders” (Odyssey Thera, Inc., priority 2008, published 2010).
# Tests used:
# PCSK9/LDLR complex = test: PCSK9/LDLR protein complementation assay (PCA) in transfected HEK293 cells; type: cell-based, human
# Procedure: In one of the embodiments of the invention, the cell-based assay consists of transfected cDNAs encoding full-length PCSK9 and LDL receptor, each sequence linked in-frame to rationally designed fragments of a variant of green fluorescent protein. These two plasmid constructs were co-expressed in human HEK cells plated in 384-well poly-lysine coated plates. After 24-48 hours of incubation, drugs (or vehicle controls) were added to the media, and the existence and localization of PCSK9/LDL receptor complexes was quantified on an Opera automated confocal fluorescence microscopy platform (Perkin Elmer). Images were subjected to automated image analysis, and results quantified and subjected to statistical analysis.
# HEK 293T cells were seeded in normal growth media containing DMEM and 10% FBS at 1.5×10^4 in PDL-coated 96-well plates 24 hours prior to transfection. Cells were transfected with 50 ng of each construct DNA per well with Fugene 6, using conditions recommended by the manufacturer. Cells were allowed to express the construct pairs for 24- or 48 h, then the cells were simultaneously fixed and stained with either a 1:300 dilution of Hoescht 33342 (Molecular Probes, Eugene, Oreg.) or a 1:1000 dilution of Draq5 (Biostatus, Shepshed, Leicestershire, U.K.) in 4% formaldehyde for 15 minutes at room temperature. The cells were washed to remove fixative, and overlaid with a small volume of Hank's Buffered Salt Solution. Images were acquired on a Discovery-1 (Molecular Devices) epifluorescence microscope using the 20× objective, and DAPI and FITC filter sets. (with excitation at 350 and 488 nm wave lengths) or on an Opera (Perkin Elmer) confocal microscope using the 20× water objective with the following excitation and emission settings: Ex 488 nm/Em 535 nm (YFP) and Ex 635 nm/Em 640 nm (Draq5).
# To test for in vitro PCSK9 function and activity, we developed a protein complementation assay (PCA) with PCSK9-IFP2 and the LDL-IFP1 receptor (PCSK9/LDLR). Expression of wild type PCSK9-IFP2 in transfected HEK293 cells was confirmed by Western blot using an antibody against YFP (FIG. 2). Cotranfection of HEK cells with increasing ratios of PCSK9-IFP2 and LDLR-IFP1 DNA constructs results in increased PCA signal (FIG. 3) but not when each construct is expressed alone. The intracellular localization of the wild-type PCSK9-IFP2/LDLR-IFP1 PCA interaction is similar to the known localization of wild type PCSK9 in the endoplasmic reticulum (ER) and post-ER compartments in various cell types (20, 21). The PCA signal for the PCSK9-IFP2/LDLR-IFP1 pair appears to be localized to multiple intracellular trafficking sites including the ER, endosomes and the cell surface.
# In order to test the viability of using the PCSK9-IFP2/LDLR-IFP1 PCA as a drug discovery tool, we tested a drug plate containing 50 known drugs at 3 doses in the assay (Table 10) as well as several protein kinase inhibitors (representative compounds are depicted in Table 11). […] We observed the following effects of known compounds on the PCSK9/LDLR complex:
# A collection of small molecular weight compounds was screened. […] To expand on this observation, we characterized the effects of a larger panel of kinase inhibitors on the PCSK9/LDLr complex. 47 compounds representing a broad range of known receptor tyrosine and serine-threonine kinase inhibitors were assessed (table 2). A subset was identified that had inhibitory effects on the PCSK9/LDLr complex (degree of assay inhibition relative to control is indicated by “% control”, Table 2).
# HepG2 cells = test: LDL uptake in HepG2 cells (human LDL conjugated to DyLight 549); type: cell-based; conditions: for x-fold increase (hepatic LDL uptake): HepG2
# From the text: The assay uses human LDL conjugated to DyLight™ 549 as a fluorescent probe for detection of LDL uptake into HepG2 cells.
# We assessED whether compounds that inhibit the PCSK9/LDLr assay would have activity on LDL uptake and metabolism in a relevant cell type. PCSK9 is thought to be a negative regulator of LDLr. Thus, we predicted that compounds inhibiting the PCSK9 PCA signal would increase LDL receptor expression and LDL uptake. An assay using human LDL conjugated to DyLight™ 549 as a fluorescent probe for detection of LDL uptake into cultured human hepatocytes. A separate assay, using an LDL receptor-specific polyclonal antibody and a DyLight™ 488-conjugated secondary antibody, was also performed to localize LDL receptors
# Quantitation of the increased LDL uptake of these and other kinase inhibitors targeting Akt, mTOR, p38, GSK3 and VEGF is shown in Table 4.
molecule,measurement,setting,value
COC[C@H]1OC(=O)c2coc3c2[C@@]1(C)C1=C(C3=O)[C@@H]2CCC(=O)[C@@]2(C)C[C@H]1OC(C)=O [Wortmannin],% Control (PCSK9/LDLr PCA),PCSK9/LDLR complex; dose 1.5 μM,63%
CCOC(=O)N1CCC(=C2c3ccc(Cl)cc3CCc3cccnc32)CC1 [Loratidine],% Control (PCSK9/LDLr PCA),PCSK9/LDLR complex; dose 30 μM,59%
CN[C@@H]1C[C@H]2O[C@@](C)([C@@H]1OC)n1c3ccccc3c3c4c(c5c6ccccc6n2c5c31)C(=O)NC4 [Staurosporine],% Control (PCSK9/LDLr PCA),PCSK9/LDLR complex; dose 1 μM,34%
C[S+]([O-])c1ccc(-c2nc(-c3ccc(F)cc3)c(-c3ccncc3)[nH]2)cc1 (stereo not shown) [SB 203580],x-fold increase (LDL uptake in Hepg2 cells),HepG2 cells; dose 3 μM,3.0 x-fold
same,x-fold increase (hepatic LDL uptake),HepG2 cells; dose 3 µM,3.0 x-fold
COc1ccnc(C[S+]([O-])c2nc3ccc(OC(F)F)cc3[nH]2)c1OC (stereo not shown) [Pantoprazole],% Control (PCSK9/LDLr PCA),PCSK9/LDLR complex; dose 200 μM,36%
"CC[n+]1c(/C=C/N(C)c2ccccc2)n(-c2ccccc2)c2ccc(-c3nc4ccccc4s3)cc21 [Akt Inhibitor IV, 5-(2-Benzothiazolyl)-3-ethyl-2-[2-(methylphenylamino)ethenyl]-1-phenyl-1H-benzimidazolium iodide]",% Control (PCSK9/LDLr PCA),PCSK9/LDLR complex; dose 1 μM,65%
same,% Control (PCSK9/LDLr PCA),PCSK9/LDLR complex; dose 3 μM,40%
same,% Control (PCSK9/LDLr PCA),PCSK9/LDLR complex; dose 10 μM,56%
CC(C)(C)c1ccc(C(O)CCCN2CCC(C(O)(c3ccccc3)c3ccccc3)CC2)cc1 (stereo not shown) [Terfenadine],% Control (PCSK9/LDLr PCA),PCSK9/LDLR complex; dose 10 μM,59%
Cc1cn(-c2cc(NC(=O)c3ccc(C)c(Nc4nccc(-c5cccnc5)n4)c3)cc(C(F)(F)F)c2)cn1 [Nilotinib],effect on formation of PCSK9/LDLR complexes / PCA signal (in words),PCSK9/LDLR complex,inhibit the formation of PCSK9/LDLR complexes
same,% Control (PCSK9/LDLr PCA),PCSK9/LDLR complex; dose 3 μM,48%
same,% Control (PCSK9/LDLr PCA),PCSK9/LDLR complex; dose 10 μM,65%
Oc1ccc(-c2nc(-c3ccc(F)cc3)c(-c3ccncc3)[nH]2)cc1 [SB 202190],x-fold increase (LDL uptake in Hepg2 cells),HepG2 cells; dose 1 μM,2.7 x-fold
same,x-fold increase (hepatic LDL uptake),HepG2 cells; dose 1 µM,2.7 x-fold
O=c1cc(N2CCNCC2)oc2c(-c3ccccc3)cccc12 [LY 303511],x-fold increase (LDL uptake in Hepg2 cells),HepG2 cells; dose 3 μM,1.4 x-fold
same,x-fold increase (LDL uptake in Hepg2 cells),HepG2 cells; dose 30 μM,2.1 x-fold
same,x-fold increase (hepatic LDL uptake),HepG2 cells; dose 30 µM,2.1 x-fold
same,x-fold increase (hepatic LDL uptake),HepG2 cells; dose 3 µM,1.4 x-fold
"O=C1NC(=O)C(=Cc2ccc(-c3ccc(F)cc3O)o2)S1 [PI3K gamma/CKII inhibitor, (5-(4-Fluoro-2-hydroxyphenyl)furan-2-ylmethylene)thiazolidine-2,4-dione]",% Control (PCSK9/LDLr PCA),PCSK9/LDLR complex; dose 3 μM,57%
same,% Control (PCSK9/LDLr PCA),PCSK9/LDLR complex; dose 10 μM,47%
CN(C)CCC=C1c2ccccc2CCc2ccccc21 [Amitryptyline],% Control (PCSK9/LDLr PCA),PCSK9/LDLR complex; dose 100 μM,48%
CN(C)CCCN1c2ccccc2CCc2ccccc21 [Imipramine],% Control (PCSK9/LDLr PCA),PCSK9/LDLR complex; dose 150 μM,46%
CO[C@H]1C[C@@H]2CC[C@@H](C)[C@@](O)(O2)C(=O)C(=O)N2CCCC[C@H]2C(=O)O[C@H]([C@H](C)C[C@@H]2CC[C@H](n3cnnn3)[C@H](OC)C2)CC(=O)[C@H](C)/C=C(\C)[C@@H](O)[C@@H](OC)C(=O)[C@H](C)C[C@H](C)/C=C/C=C/C=C/1C [Zotarolimus],% Control (PCSK9/LDLr PCA),PCSK9/LDLR complex; dose 10 μM,37%
C=C1CC[C@@H]2[C@](C)(CO)CCC[C@@]2(C)[C@@H]1CCC1=CCOC1=O [Andrograpanin],% Control (PCSK9/LDLr PCA),PCSK9/LDLR complex; dose 100 μM,40%
Cc1c(OCC(F)(F)F)ccnc1C[S+]([O-])c1nc2ccccc2[nH]1 (stereo not shown) [Lanzoprazole],effect on formation of PCSK9/LDLR complexes / PCA signal (in words),PCSK9/LDLR complex,inhibit the formation of PCSK9/LDLR complexes
same,% Control (PCSK9/LDLr PCA),PCSK9/LDLR complex; dose 100 μM,53%
O=C1C(SCCO)=C(SCCO)C(=O)N1c1ccc(-c2ccccc2)cc1 [PM20],% Control (PCSK9/LDLr PCA),PCSK9/LDLR complex; dose 10 μM,53%
CN(C)CCCN1c2ccccc2CCc2ccc(Cl)cc21 [Clomipramine],% Control (PCSK9/LDLr PCA),PCSK9/LDLR complex; dose 50 μM,46%
CC[C@H](CO)Nc1nc(NCc2ccccc2)c2ncn(C(C)C)c2n1 [Roscovitine],% Control (PCSK9/LDLr PCA),PCSK9/LDLR complex; dose 40 μM,54%
CS(=O)(=O)CCNCc1ccc(-c2ccc3ncnc(Nc4ccc(OCc5cccc(F)c5)c(Cl)c4)c3c2)o1 [Lapatinib],effect on LDL uptake (in words),"HepG2 cells; HepG2, 10 μM",dramatic increase in LDL uptake
same,x-fold increase (LDL uptake in Hepg2 cells),HepG2 cells; dose 10 μM,1.8 x-fold
same,x-fold increase (hepatic LDL uptake),HepG2 cells; dose 10 µM,1.8 x-fold
same,x-fold increase (LDL uptake in Hepg2 cells),HepG2 cells; dose 30 μM,1.9 x-fold
same,x-fold increase (hepatic LDL uptake),HepG2 cells; dose 30 µM,1.9 x-fold
"Oc1cccc(-c2nc(N3CCOCC3)c3sccc3n2)c1 [PI 3-K alpha Inhibitor IV, 3-(4-Morpholinothieno[3,2-d]pyrimidin-2-yl)phenol]",% Control (PCSK9/LDLr PCA),PCSK9/LDLR complex; dose 30 μM,46%
CCc1cc(-c2oncc2-c2ccc(OC)cc2)c(O)cc1OC [KRIBB3],x-fold increase (LDL uptake in Hepg2 cells),HepG2 cells; dose 1 μM,1.3 x-fold
same,x-fold increase (hepatic LDL uptake),HepG2 cells; dose 1 µM,1.3 x-fold
same,x-fold increase (LDL uptake in Hepg2 cells),HepG2 cells; dose 3 μM,1.6 x-fold
same,x-fold increase (hepatic LDL uptake),HepG2 cells; dose 3 µM,1.6 x-fold
CN[C@H]1CC[C@@H](c2ccc(Cl)c(Cl)c2)c2ccccc21 [Sertraline],% Control (PCSK9/LDLr PCA),PCSK9/LDLR complex; dose 100 μM,46%
"CCN(CC)CCCCN1c2ccccc2Oc2ccc(Cl)cc21.Cl [Akt Inhibitor X, 10-(4′-(N-diethylamino)butyl)-2-chlorophenoxazine, HCl]",x-fold increase (LDL uptake in Hepg2 cells),HepG2 cells; dose 1 μM,1.4 x-fold
same,x-fold increase (hepatic LDL uptake),HepG2 cells; dose 1 µM,1.4 x-fold
same,x-fold increase (LDL uptake in Hepg2 cells),HepG2 cells; dose 3 μM,1.7 x-fold
same,x-fold increase (hepatic LDL uptake),HepG2 cells; dose 3 µM,1.7 x-fold
O=NN(CCCl)C(=O)NC1CCCCC1 [Lomustine],% Control (PCSK9/LDLr PCA),PCSK9/LDLR complex; dose 50 μM,50%
same,% Control (PCSK9/LDLr PCA),PCSK9/LDLR complex; dose 150 μM,54%
O=C1NC(=O)C(c2ccccc2[N+](=O)[O-])=C1Nc1ccc(O)c(Cl)c1 [SB 415286],x-fold increase (LDL uptake in Hepg2 cells),HepG2 cells; dose 25 μM,1.6 x-fold
same,x-fold increase (hepatic LDL uptake),HepG2 cells; dose 25 µM,1.6 x-fold
CC/C(=C(\c1ccccc1)c1ccc(OCCN(C)C)cc1)c1ccccc1 [Tamoxifen],% Control (PCSK9/LDLr PCA),PCSK9/LDLR complex; dose 30 μM,53%
COc1cc2ncnc(Nc3cccc(Br)c3)c2cc1OC [PD-153035],x-fold increase (LDL uptake in Hepg2 cells),HepG2 cells; dose 0.2 μM,1.3 x-fold
same,x-fold increase (hepatic LDL uptake),HepG2 cells; dose 0.2 µM,1.3 x-fold
C=C1[C@@H](C)[C@H]2[C@H](Cc3ccccc3)NC(=O)[C@]23OC(=O)/C=C/[C@H](O)CCC[C@@H](C)C/C=C/[C@H]3[C@@H]1O [Cytochalasin B],% Control (PCSK9/LDLr PCA),PCSK9/LDLR complex; dose 2 μM,53%
COc1cc2ncnc(Nc3ccc(F)c(Cl)c3)c2cc1OCCCN1CCOCC1 [Gefitinib],% Control (PCSK9/LDLr PCA),PCSK9/LDLR complex; dose 100 μM,53%
CNc1cc2c(Nc3cccc(Br)c3)ncnc2cn1 [PD-158780],x-fold increase (LDL uptake in Hepg2 cells),HepG2 cells; dose 0.3 μM,1.3 x-fold
same,x-fold increase (hepatic LDL uptake),HepG2 cells; dose 0.3 µM,1.3 x-fold
C=C1CC[C@@H]2[C@](C)(CO)[C@H](O)CC[C@@]2(C)[C@@H]1C/C=C1/C(=O)OC[C@H]1O [Andrographolide],% Control (PCSK9/LDLr PCA),PCSK9/LDLR complex; dose 100 μM,43%
"Oncostatin M (OSM): regulator of hepatic LDL uptake, purported target Gp130/OSMR/LIFR (protein, UniProt P13725 26-221, looked up) Oncostatin-M: AAIGSCSKEYRVLLGQLQKQTDLMQDTSRLLDPYIRIQGLDVPKLREHCRERPGAFPSEETLRGLGRRGFLQTLNATLGCVLHRLADLEQRLPKAQDLERSGLNIEDLEKLQMARPNILGLRNNIYCMAQLLDNSDTAEPTKAGRGASQPPTPTPASDAFQRKLEGCRFLHGYHRFMHSVGRVFSKWGESPNRSRR",x-fold increase (hepatic LDL uptake),HepG2 cells; dose 30 ng/ml,4.2 x-fold
